Reference: patent US10597388B2, “Pyridazinone herbicides” (FMC CORPORATION, priority 2014, dated 2020)

What was measured:
Experiment in all cases: Test E greenhouse herbicide test, pre- and postemergence
Type in all cases: in vivo
[1] = tested on: foxtail, giant (giant foxtail, Setaria faberii); settings: Preemergence
Procedure, shortened: (§1)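 Seedlings reaching 2–18 cm (1- to 4-leaf stage) received foliar treatment, while seeds in silt loam received a soil surface spray; the vehicle in each case was a non-phytotoxic solvent mixture including surfactant. Visual scoring versus controls followed 14–21 d later on a 0–100 scale.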

[2] = tested on: pigweed, palmer (palmer pigweed, Amaranthus palmeri)
Procedure, shortened: as §1

[3] = tested on: velvetleaf (Abutilon theophrasti); settings: Preemergence
Procedure, shortened: as §1

[4] = tested on: surinam grass (Brachiaria decumbens); settings: Preemergence
Procedure, shortened: as §1

[5] = tested on: beggarticks (hairy beggarticks, Bidens pilosa)
Procedure, shortened: as §1

[6] = tested on: johnsongrass (Sorghum halepense); settings: Preemergence
Procedure, shortened: as §1

[7] = tested on: nightshade (eastern black nightshade, Solanum ptycanthum); settings: Preemergence
Procedure, shortened: as §1

[8] = tested on: waterhemp (common waterhemp, Amaranthus rudis)
Procedure, shortened: as §1

kochia (Kochia scoparia) = tested on: kochia (Kochia scoparia)
Procedure, shortened: as §1

[9] = tested on: field bindweed (Convolvulus arvensis)
Procedure, shortened: as §1

[10] = tested on: crabgrass, large (large crabgrass, Digitaria sanguinalis); settings: Preemergence
Procedure, shortened: as §1

[11] = tested on: lambsquarters (Chenopodium album); settings: Preemergence
Procedure, shortened: as §1

[12] = 62 g ai/ha, scale 0 to 100 (0 no effect, 100 complete control)
[13] = 125 g ai/ha, scale 0 to 100 (0 no effect, 100 complete control)
[14] = 16 g ai/ha, scale 0 to 100, 0 no effect, 100 complete control
[15] = 31 g ai/ha, scale 0 to 100, 0 no effect, 100 complete control
[16] = 62 g ai/ha, Postemergence, scale 0 to 100 (0 no effect, 100 complete control)
[17] = 62 g ai/ha, Preemergence, scale 0 to 100 (0 no effect, 100 complete control)
[18] = 125 g ai/ha, Postemergence, scale 0 to 100 (0 no effect, 100 complete control)
[19] = 125 g ai/ha, Preemergence, scale 0 to 100 (0 no effect, 100 complete control)
[20] = Postemergence, 16 g ai/ha, visual, scale 0 no effect to 100 complete control
[21] = Postemergence, 31 g ai/ha, visual, scale 0 no effect to 100 complete control
[22] = Preemergence, 16 g ai/ha, scale 0 to 100, 0 no effect, 100 complete control
[23] = Preemergence, 31 g ai/ha, scale 0 to 100, 0 no effect, 100 complete control
[24] = 250 g ai/ha, visual, scale 0 no effect to 100 complete control
[25] = 250 g ai/ha, Postemergence, scale 0 to 100 (0 no effect, 100 complete control)
[26] = Preemergence, 250 g ai/ha, visual, scale 0 no effect to 100 complete control

## Cc1ccc2sc(C)c(-c3c(OC(=O)OC(C)C)c(C)nn(C)c3=O)c2c1 [Compound 66]
[1]; [12]
  Plant response rating, Foxtail, Giant: 40
[1]; [13]
  Plant response rating, Foxtail, Giant: 90
[1]; [14]
  Plant response rating, Foxtail, Giant: 0
[1]; [15]
  Plant response rating, Foxtail, Giant: 5
[2]; [16]
  Plant response rating, Pigweed, Palmer: 60
[2]; [17]
  Plant response rating, Pigweed, Palmer: 65
[2]; [18]
  Plant response rating, Pigweed, Palmer: 80
[2]; [19]
  Plant response rating, Pigweed, Palmer: 100
[2]; [20]
  Plant response rating, Pigweed, Palmer: 50
[2]; [21]
  Plant response rating, Pigweed, Palmer: 70
[2]; [22]
  Plant response rating, Pigweed, Palmer: 0
[2]; [23]
  Plant response rating, Pigweed, Palmer: 0
[3]; [12]
  Plant response rating, Velvetleaf: 20
[3]; [13]
  Plant response rating, Velvetleaf: 80
[3]; [14]
  Plant response rating, Velvetleaf: 0
[3]; [15]
  Plant response rating, Velvetleaf: 0
[4]; [12]
  Plant response rating, Surinam Grass: 5
[4]; [13]
  Plant response rating, Surinam Grass: 50
[4]; [14]
  Plant response rating, Surinam Grass: 5
[4]; [15]
  Plant response rating, Surinam Grass: 20
[5]; [16]
  Plant response rating, Beggarticks: 90
[5]; [17]
  Plant response rating, Beggarticks: 95
[5]; [18]
  Plant response rating, Beggarticks: 100
[5]; [19]
  Plant response rating, Beggarticks: 100
[5]; [20]
  Plant response rating, Beggarticks: 75
[5]; [21]
  Plant response rating, Beggarticks: 80
[5]; [22]
  Plant response rating, Beggarticks: 65
[5]; [23]
  Plant response rating, Beggarticks: 70
[6]; [12]
  Plant response rating, Johnsongrass: 0
[6]; [13]
  Plant response rating, Johnsongrass: 0
[6]; [14]
  Plant response rating, Johnsongrass: 0
[6]; [15]
  Plant response rating, Johnsongrass: 0
[7]; [12]
  Plant response rating, Nightshade: 15
[7]; [13]
  Plant response rating, Nightshade: 100
[7]; [14]
  Plant response rating, Nightshade: 0
[7]; [15]
  Plant response rating, Nightshade: 0
[8]; [16]
  Plant response rating, Waterhemp: 75
[8]; [17]
  Plant response rating, Waterhemp: 80
[8]; [18]
  Plant response rating, Waterhemp: 80
[8]; [19]
  Plant response rating, Waterhemp: 90
[8]; [20]
  Plant response rating, Waterhemp: 70
[8]; [21]
  Plant response rating, Waterhemp: 65
[8]; [22]
  Plant response rating, Waterhemp: 0
[8]; [23]
  Plant response rating, Waterhemp: 65
Kochia (Kochia scoparia); [16]
  Plant response rating, Kochia: 90
Kochia (Kochia scoparia); [17]
  Plant response rating, Kochia: 60
Kochia (Kochia scoparia); [18]
  Plant response rating, Kochia: 95
Kochia (Kochia scoparia); [19]
  Plant response rating, Kochia: 90
Kochia (Kochia scoparia); [20]
  Plant response rating, Kochia: 90
Kochia (Kochia scoparia); [21]
  Plant response rating, Kochia: 95
Kochia (Kochia scoparia); [22]
  Plant response rating, Kochia: 0
Kochia (Kochia scoparia); [23]
  Plant response rating, Kochia: 0
[9]; [16]
  Plant response rating, Field Bindweed: 80
[9]; [17]
  Plant response rating, Field Bindweed: 50
[9]; [18]
  Plant response rating, Field Bindweed: 80
[9]; [19]
  Plant response rating, Field Bindweed: 40
[9]; [20]
  Plant response rating, Field Bindweed: 70
[9]; [21]
  Plant response rating, Field Bindweed: 60
[9]; [22]
  Plant response rating, Field Bindweed: 0
[9]; [23]
  Plant response rating, Field Bindweed: 5
[10]; [12]
  Plant response rating, Crabgrass, Large: 0
[10]; [13]
  Plant response rating, Crabgrass, Large: 15
[10]; [14]
  Plant response rating, Crabgrass, Large: 0
[10]; [15]
  Plant response rating, Crabgrass, Large: 0
[11]; [12]
  Plant response rating, Lambsquarters: 100
[11]; [13]
  Plant response rating, Lambsquarters: 100
[11]; [14]
  Plant response rating, Lambsquarters: 5
[11]; [15]
  Plant response rating, Lambsquarters: 90

## Cc1nn(C)c(=O)c(-c2ccc(Br)c3ccccc23)c1O [Compound 75]
[1]; [12]
  Plant response rating, Foxtail, Giant: 5
[1]; [13]
  Plant response rating, Foxtail, Giant: 35
[1]; [15]
  Plant response rating, Foxtail, Giant: 0
[1]; [24]
  Plant response rating, Foxtail, Giant: 75
[2]; [16]
  Plant response rating, Pigweed, Palmer: 70
[2]; [17]
  Plant response rating, Pigweed, Palmer: 85
[2]; [18]
  Plant response rating, Pigweed, Palmer: 100
[2]; [19]
  Plant response rating, Pigweed, Palmer: 50
[2]; [25]
  Plant response rating, Pigweed, Palmer: 100
[2]; [21]
  Plant response rating, Pigweed, Palmer: 70
[2]; [23]
  Plant response rating, Pigweed, Palmer: 30
[2]; [26]
  Plant response rating, Pigweed, Palmer: 100
[3]; [12]
  Plant response rating, Velvetleaf: 85
[3]; [13]
  Plant response rating, Velvetleaf: 100
[3]; [15]
  Plant response rating, Velvetleaf: 35
[3]; [24]
  Plant response rating, Velvetleaf: 98
[4]; [12]
  Plant response rating, Surinam Grass: 35
[4]; [13]
  Plant response rating, Surinam Grass: 60
[4]; [15]
  Plant response rating, Surinam Grass: 5
[4]; [24]
  Plant response rating, Surinam Grass: 90
[5]; [16]
  Plant response rating, Beggarticks: 95
[5]; [17]
  Plant response rating, Beggarticks: 80
[5]; [18]
  Plant response rating, Beggarticks: 100
[5]; [19]
  Plant response rating, Beggarticks: 100
[5]; [25]
  Plant response rating, Beggarticks: 100
[5]; [21]
  Plant response rating, Beggarticks: 100
[5]; [23]
  Plant response rating, Beggarticks: 35
[5]; [26]
  Plant response rating, Beggarticks: 100
[6]; [12]
  Plant response rating, Johnsongrass: 0
[6]; [13]
  Plant response rating, Johnsongrass: 10
[6]; [15]
  Plant response rating, Johnsongrass: 0
[6]; [24]
  Plant response rating, Johnsongrass: 15
[7]; [12]
  Plant response rating, Nightshade: 0
[7]; [13]
  Plant response rating, Nightshade: 90
[7]; [15]
  Plant response rating, Nightshade: 0
[7]; [24]
  Plant response rating, Nightshade: 100
[8]; [16]
  Plant response rating, Waterhemp: 90
[8]; [17]
  Plant response rating, Waterhemp: 60
[8]; [18]
  Plant response rating, Waterhemp: 90
[8]; [19]
  Plant response rating, Waterhemp: 100
[8]; [25]
  Plant response rating, Waterhemp: 95
[8]; [21]
  Plant response rating, Waterhemp: 80
[8]; [23]
  Plant response rating, Waterhemp: 50
[8]; [26]
  Plant response rating, Waterhemp: 100
Kochia (Kochia scoparia); [16]
  Plant response rating, Kochia: 98
Kochia (Kochia scoparia); [17]
  Plant response rating, Kochia: 100
Kochia (Kochia scoparia); [18]
  Plant response rating, Kochia: 100
Kochia (Kochia scoparia); [19]
  Plant response rating, Kochia: 100
Kochia (Kochia scoparia); [25]
  Plant response rating, Kochia: 100
Kochia (Kochia scoparia); [21]
  Plant response rating, Kochia: 90
Kochia (Kochia scoparia); [23]
  Plant response rating, Kochia: 98
Kochia (Kochia scoparia); [26]
  Plant response rating, Kochia: 100
[9]; [16]
  Plant response rating, Field Bindweed: 90
[9]; [17]
  Plant response rating, Field Bindweed: 5
[9]; [18]
  Plant response rating, Field Bindweed: 80
[9]; [19]
  Plant response rating, Field Bindweed: 100
[9]; [25]
  Plant response rating, Field Bindweed: 85
[9]; [21]
  Plant response rating, Field Bindweed: 85
[9]; [23]
  Plant response rating, Field Bindweed: 0
[9]; [26]
  Plant response rating, Field Bindweed: 98
[10]; [12]
  Plant response rating, Crabgrass, Large: 0
[10]; [13]
  Plant response rating, Crabgrass, Large: 0
[10]; [15]
  Plant response rating, Crabgrass, Large: 0
[10]; [24]
  Plant response rating, Crabgrass, Large: 30
[11]; [12]
  Plant response rating, Lambsquarters: 100
[11]; [13]
  Plant response rating, Lambsquarters: 100
[11]; [15]
  Plant response rating, Lambsquarters: 100
[11]; [24]
  Plant response rating, Lambsquarters: 100

## COC(=O)Oc1c(C)nn(C)c(=O)c1-c1c(C)sc2ccc(C)cc12 [Compound 80]
[1]; [12]
  Plant response rating, Foxtail, Giant: 80
[1]; [13]
  Plant response rating, Foxtail, Giant: 85
[1]; [14]
  Plant response rating, Foxtail, Giant: 0
[1]; [15]
  Plant response rating, Foxtail, Giant: 50
[2]; [17]
  Plant response rating, Pigweed, Palmer: 70
[2]; [19]
  Plant response rating, Pigweed, Palmer: 70
[2]; [22]
  Plant response rating, Pigweed, Palmer: 20
[2]; [23]
  Plant response rating, Pigweed, Palmer: 35
[3]; [12]
  Plant response rating, Velvetleaf: 70
[3]; [13]
  Plant response rating, Velvetleaf: 90
[3]; [14]
  Plant response rating, Velvetleaf: 0
[3]; [15]
  Plant response rating, Velvetleaf: 20
[4]; [12]
  Plant response rating, Surinam Grass: 20
[4]; [13]
  Plant response rating, Surinam Grass: 75
[4]; [14]
  Plant response rating, Surinam Grass: 0
[4]; [15]
  Plant response rating, Surinam Grass: 10
[5]; [17]
  Plant response rating, Beggarticks: 100
[5]; [19]
  Plant response rating, Beggarticks: 100
[5]; [22]
  Plant response rating, Beggarticks: 100
[5]; [23]
  Plant response rating, Beggarticks: 85
[6]; [12]
  Plant response rating, Johnsongrass: 80
[6]; [13]
  Plant response rating, Johnsongrass: 80
[6]; [15]
  Plant response rating, Johnsongrass: 0
[7]; [12]
  Plant response rating, Nightshade: 100
[7]; [13]
  Plant response rating, Nightshade: 98
[7]; [14]
  Plant response rating, Nightshade: 75
[7]; [15]
  Plant response rating, Nightshade: 75
[8]; [17]
  Plant response rating, Waterhemp: 100
[8]; [19]
  Plant response rating, Waterhemp: 100
[8]; [22]
  Plant response rating, Waterhemp: 0
[8]; [23]
  Plant response rating, Waterhemp: 70
Kochia (Kochia scoparia); [17]
  Plant response rating, Kochia: 100
Kochia (Kochia scoparia); [19]
  Plant response rating, Kochia: 100
Kochia (Kochia scoparia); [22]
  Plant response rating, Kochia: 25
Kochia (Kochia scoparia); [23]
  Plant response rating, Kochia: 90
[9]; [17]
  Plant response rating, Field Bindweed: 70
[9]; [19]
  Plant response rating, Field Bindweed: 100
[9]; [22]
  Plant response rating, Field Bindweed: 20
[9]; [23]
  Plant response rating, Field Bindweed: 25
[10]; [12]
  Plant response rating, Crabgrass, Large: 35
[10]; [13]
  Plant response rating, Crabgrass, Large: 35
[10]; [14]
  Plant response rating, Crabgrass, Large: 0
[10]; [15]
  Plant response rating, Crabgrass, Large: 0
[11]; [12]
  Plant response rating, Lambsquarters: 98
[11]; [13]
  Plant response rating, Lambsquarters: 100
[11]; [14]
  Plant response rating, Lambsquarters: 65
[11]; [15]
  Plant response rating, Lambsquarters: 100
